In patent publication US20240115557A1, “INHIBITORS OF RNA-GUIDED NUCLEASES AND USES THEREOF” (The Brigham and Women's Hospital, Inc., priority 2022, published 2024):

Tests used:
SpCas9 expression = assay: Immunoblotting of SpCas9 expression; assay type: cell-based; conditions: HEK293T and U2OS.eGFP.PEST, 24 h
Method: Approximately 500,000 U20S.eGFP.PEST cells were nucleofected as described above with 500 ng of SpCas9 plasmid. Then, cells were plated in a 12-well plate with indicated amount of compound, and incubated for 24 h. HEK293T cells were transfected with 500 ng SpCas9 plasmid as described above, and incubated with the compound for 24 h in a 24-well plate. Cells were harvested and lysed by RIPA buffer containing Protease Inhibitor Cocktail (Roche). Lysate was cleared by centrifugation at 20,000 g in 4° C., and the supernatant was taken to measure the protein concentration using BCA assay. Approximately […] of the total protein was used for immunoblotting. Rabbit anti-SpCas9 (Abcam #89380, 1:1,000 dilution) and mouse anti-a-tubulin (CST #3873, 1:2,000 dilution) were used as primary antibodies. IRDye 680RD Donkey anti-Rabbit IgG (LI-COR #925-68073, 1:10,000 dilution) and IRDye 800CW Donkey anti-Mouse IgG (LI-COR #925-32212, 1:10,000 dilution) were used as secondary antibodies.

SpCas9 [1] = target: T1, SpCas9 (Streptococcus pyogenes serotype M1, UniProt Q99ZW2); assay: Targeted deep sequencing of indels (eGFP, EMX1, FANCF, VEGFA); assay type: cell-based
Method: U2OS.eGFP.PEST cells were nucleofected as described above for the eGFP disruption assay, plated in a 24-well plate at the density of 150,000 cells per well, and incubated with BRD7586 for 24 h. Then, the genomic DNA was extracted using DNeasy Blood & Tissue Kit (Qiagen). HEK293T cells were plated in a 24-well plate at the density of 100,000 cells per well. The next day, cells were transfected with 500 ng of SpCas9 plasmid and 250 ng of EMX1-, VEGFA-, or FANCF-targeting gRNA plasmid using Lipofectamine 3000 (Invitrogen). Indicated amount of compound was added at the time of transfection, cells were incubated for 24 h or 48 h, and genomic DNA was extracted. Next-generation sequencing (NGS) samples were prepared using a two-step PCR protocol. NGS libraries were quantified using KAPA Library Quantification Kit (Roche) and diluted to 4 nM. Sequencing of the pooled library was performed using MiSeq Reagent Kit v2 (Illumina). The percentage of indel in the demultiplexed sequence files was analyzed using the CRISPResso2 software from the Pinello Lab.^49

SpCas9 [2] = target: T1, SpCas9; assay: In vitro DNA cleavage assay, SpCas9; assay type: biochemical; conditions: 0-40 μM
Method: First, Cas9:gRNA complex (30 nM Cas9 (NEB) and 36 nM eGFP targeting gRNA) was formed by mixing each component at a 1:1.2 (Cas9:gRNA) molar ratio and incubating at room temperature for 10 minutes. BRD7586 at doses 0, 5, 10, 20, 30, 40 μM were incubated with Cas9:gRNA complex at 37° C. for 30 minutes at 700 rpm. PCR amplified target eGFP DNA (2 nM) was added after 30 minutes of compound incubation and the mixture was incubated at 37° C. for 30 minutes at 700 rpm. Proteinase K (5 μL) was added and incubated at 37° C. for 30 minutes at 700 rpm to digest the Cas9. The resulting mixtures were purified PCR mini elute kit (Qiagen) and the eluted DNA was quantified by Qubit HS DNA quantification method. Equal amounts of DNA samples were run on a 1% agarose E-gels (invitrogen) for 7 minutes. Images were obtained by an Azure 600 (Azure Biosystem) and quantification of band intensities were performed by ImageJ based analysis.

U2OS.eGFP.PEST cells = assay: CellTiter-Glo cell viability assay, U2OS.eGFP.PEST; assay type: cell-based, human; conditions: 24 h
Method: (§1) HEK293T cells or U2OS.eGFP.PEST cells were plated in a 96-well plate at the density of 30,000 cells per well or 20,000 cells per well, respectively. The next day, cells were treated with indicated amount of compounds for 24 h. Then, cellular ATP levels were measured using CellTiter-Glo Luminescent Cell Viability Assay (Promega) with an EnVision Multilabel Plate Reader (PerkinElmer) at the integration time of 0.5 s per well.

HEK293T cells = assay: CellTiter-Glo cell viability assay, HEK293T; assay type: cell-based, human; conditions: 24 h
Method: as §1

SpCas9:gRNA complex = SpCas9:gRNA complex (Streptococcus pyogenes serotype M1, UniProt Q99ZW2); assay: STD NMR binding assay; conditions: 20 μM compound, 5 μM SpCas9:gRNA
Method: All samples were prepared with 20 μM of BRD7586 in a 20 mM […] buffer (pH 7.4) in D2O with or without 5 μM of SpCas9:gRNA in a 3 mm NMR tube. Experiments were performed on a 600 MHz (^19F: 564.71 MHz) Bruker AVANCE III NMR spectrometer equipped with a 5 mm QCI-F CryoProbe and a SampleJet for automated sample handling. To acquire the spectra, a standard one-pulse STD experiment with WALTZ-16 for proton decoupling during acquisition, a 5 s recycle delay, and 256 scans were used. All spectra were recorded at 280 K. NMR data were apodized with a 1-Hz exponential function prior to Fourier transformation. All spectra were baseline corrected, and peak widths and intensities were extracted using the automated line-fitting feature provided with the MNova software package.

T1 sequence (Q99ZW2 whole entry): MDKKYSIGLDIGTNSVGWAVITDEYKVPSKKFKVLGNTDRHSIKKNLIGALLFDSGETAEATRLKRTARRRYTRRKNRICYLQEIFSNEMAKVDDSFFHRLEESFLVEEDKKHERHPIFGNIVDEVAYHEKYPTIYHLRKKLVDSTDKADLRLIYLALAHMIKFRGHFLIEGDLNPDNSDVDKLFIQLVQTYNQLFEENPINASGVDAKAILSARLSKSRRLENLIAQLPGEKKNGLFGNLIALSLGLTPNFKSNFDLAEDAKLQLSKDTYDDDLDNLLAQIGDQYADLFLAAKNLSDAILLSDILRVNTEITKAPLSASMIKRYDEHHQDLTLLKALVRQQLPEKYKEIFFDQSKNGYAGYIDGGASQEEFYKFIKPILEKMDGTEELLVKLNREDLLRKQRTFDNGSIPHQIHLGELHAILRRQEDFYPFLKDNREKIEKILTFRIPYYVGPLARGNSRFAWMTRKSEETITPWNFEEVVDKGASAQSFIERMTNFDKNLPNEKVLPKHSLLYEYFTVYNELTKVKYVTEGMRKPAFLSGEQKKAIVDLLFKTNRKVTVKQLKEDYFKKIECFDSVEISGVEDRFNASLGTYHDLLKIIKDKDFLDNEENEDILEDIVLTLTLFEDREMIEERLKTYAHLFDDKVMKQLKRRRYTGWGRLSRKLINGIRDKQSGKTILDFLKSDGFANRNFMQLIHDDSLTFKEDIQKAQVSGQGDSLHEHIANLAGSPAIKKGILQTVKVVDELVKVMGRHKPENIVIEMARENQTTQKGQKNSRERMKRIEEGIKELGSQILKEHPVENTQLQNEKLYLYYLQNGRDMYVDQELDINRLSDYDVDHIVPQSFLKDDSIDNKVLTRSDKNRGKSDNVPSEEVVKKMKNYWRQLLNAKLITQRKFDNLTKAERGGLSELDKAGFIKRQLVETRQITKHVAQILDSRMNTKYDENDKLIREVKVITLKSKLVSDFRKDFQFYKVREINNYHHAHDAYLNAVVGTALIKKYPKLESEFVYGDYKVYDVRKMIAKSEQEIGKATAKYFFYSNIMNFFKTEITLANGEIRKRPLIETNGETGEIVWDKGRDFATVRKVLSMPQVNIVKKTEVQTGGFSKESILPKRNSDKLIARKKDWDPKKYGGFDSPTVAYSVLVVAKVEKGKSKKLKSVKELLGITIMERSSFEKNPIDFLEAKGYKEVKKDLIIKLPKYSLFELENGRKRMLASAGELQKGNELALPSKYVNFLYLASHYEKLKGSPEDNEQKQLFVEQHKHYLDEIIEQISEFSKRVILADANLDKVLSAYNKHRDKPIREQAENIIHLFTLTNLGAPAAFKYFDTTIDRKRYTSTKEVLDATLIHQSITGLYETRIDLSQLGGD
Sequence of SpCas9:gRNA complex (Q99ZW2 whole entry, one chain of several): as the sequence (Q99ZW2 whole entry) above

O=C(CCS(=O)(=O)c1ccc(Cl)cc1)Nc1nc(-c2ccncc2)cs1 [BRD7586]
Effect on SpCas9 expression (SpCas9 expression): without altering its expression
Specificity of SpCas9 (on-target versus off-target ratio) (SpCas9 [1]; HEK293T, EMX1, FANCF or VEGFA, 48 h): enhanced the specificity of SpCas9
Inhibition of indel activity by next-generation sequencing (SpCas9 [1]; multiple genomic loci): inhibited the indel activity of SpCas9 at multiple genomic loci
Inhibition of SpCas9 in in vitro DNA cleavage assay (SpCas9 [2]): dose-dependent inhibition
Cytotoxicity (U2OS.eGFP.PEST cells): without introducing cytotoxicity
Cytotoxicity (HEK293T cells): without introducing cytotoxicity
STD NMR signal (SpCas9:gRNA complex): observed the STD NMR signal from marked protons
